Values quoted from earlier work as cited in patent US6833085B2, “Agent for restricting elution of phosphorus, method for producing the same, and method of restricting elution of phosphorus in sludge” (priority 2003, dated 2004).
Like-named read-outs stand apart in the source and are kept apart here.

Conditions: for Amount of diluted phosphorus: aqueous solution added into sludge

For alum, the “Amount of diluted phosphorus” value (concentration 0.21%) is listed as 407 µg/L and the “Amount of diluted phosphorus” value (concentration 0.42%) is listed as 490 µg/L.

In the case of `O=[N+]([O-])[O-].O=[N+]([O-])[O-].[Ca+2]` [Calcium nitrate, calcium nitrate], the “Amount of diluted phosphorus” value (concentration 0.35%) is listed as 67 µg/L, the “Amount of diluted phosphorus” value (concentration 0.70%) is listed as 13 µg/L and the “Inhibition of elution of phosphorus” value (injecting a 0.7% aqueous solution) is listed as 98%.

For `[Cl][Fe]([Cl])[Cl]` [Ferric chloride, ferric chloride], the “Amount of diluted phosphorus” value (concentration 0.16%) is given as 234 µg/L and the “Amount of diluted phosphorus” value (concentration 0.32%) is given as 402 µg/L.
